Consider 16 compounds from PubChem BioAssay (NCI).

Structures are written as SMILES.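 All cell lines were grown in 96-well plates and treated with compound for 48 hours. GI50 = concentration required for 50% inhibition of growth. TGI marks complete inhibition of growth.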 A value given as a limit tells only on which side of the number the result lay.

Test systems include UACC-62 melanoma; U251 CNS; LOX IMVI melanoma; SN12C renal; K-562 leukemia; EKVX NSCLC; HT29 colon; OVCAR-8 ovarian; SNB-19 CNS; ACHN renal.
Assay in all cases: growth of human tumour cells (NCI), 48 h

Regarding `Cn1c(=O)c2[nH]c(SCCN3CCOCC3)nc2n(C)c1=S`, the TGI in the test on UACC-62 melanoma, in the test on U251 CNS, in the test on LOX IMVI melanoma, in the test on SN12C renal, with K-562 leukemia and in the test with EKVX NSCLC was more than 100 µM each time. Moreover, the TGI with HT29 colon, in the test on OVCAR-8 ovarian, in the test with SNB-19 CNS and in the test with ACHN renal was more than 100 µM in each case.

Take `C#CCNC(=O)ON1C(=O)CCC1=O`: the TGI in the test with UACC-62 melanoma, in the test on U251 CNS, in the test with LOX IMVI melanoma, with SN12C renal, with K-562 leukemia and in the test with EKVX NSCLC was more than 100 µM each time. For the same compound, the TGI in the test with HT29 colon, in the test on OVCAR-8 ovarian, in the test with SNB-19 CNS and in the test with ACHN renal was more than 100 µM in each case.

`CN(C)/C=N\c1ccnc(=O)[nH]1`: the TGI in the test on UACC-62 melanoma, in the test with U251 CNS, with LOX IMVI melanoma, with SN12C renal, in the test with K-562 leukemia and with EKVX NSCLC was more than 100 µM in each case. The TGI with HT29 colon, with OVCAR-8 ovarian and in the test with ACHN renal was more than 100 µM each time.

Turning to `O=C(/C=C/c1ccc(O)c(O)c1)NCc1c[nH]c2ccccc12`, the GI50 in the test on UACC-62 melanoma is 80.6 µM; in the test with U251 CNS, 74 µM; with LOX IMVI melanoma, 60 µM; in the test on SN12C renal, 28.4 µM; in the test with K-562 leukemia it was 68.1 µM; in the test on EKVX NSCLC it was 41.5 µM. Also, the GI50 in the test on HT29 colon was 47.2 µM; in the test on OVCAR-8 ovarian, 56.6 µM; with SNB-19 CNS it was more than 100 µM; in the test with ACHN renal, 45.8 µM. Further, the TGI was more than 100 µM in the test on UACC-62 melanoma; more than 100 µM with U251 CNS; more than 100 µM with LOX IMVI melanoma; 84.7 µM in the test with SN12C renal; more than 100 µM with K-562 leukemia; more than 100 µM in the test on EKVX NSCLC. The TGI in the test on HT29 colon, in the test with OVCAR-8 ovarian, with SNB-19 CNS and in the test on ACHN renal was more than 100 µM in each case.

Turning to `C[Si](C)(c1ccc(C(=O)O)cc1)c1ccc(C(=O)O)cc1`, the TGI with UACC-62 melanoma, with U251 CNS, with LOX IMVI melanoma, with SN12C renal, in the test with K-562 leukemia and in the test with EKVX NSCLC was more than 100 µM each time. Besides, the TGI in the test on HT29 colon, in the test with OVCAR-8 ovarian, in the test on SNB-19 CNS and in the test on ACHN renal was more than 100 µM throughout.

Consider `Cl/C(N=Nc1ccccc1)=N/Nc1ccccc1`, for which the TGI with U251 CNS, with LOX IMVI melanoma, in the test with SN12C renal, with K-562 leukemia, in the test on EKVX NSCLC and in the test with HT29 colon was more than 100 µM throughout. Besides, the TGI in the test on OVCAR-8 ovarian, in the test with SNB-19 CNS and with ACHN renal was more than 100 µM each time.

Regarding `CCCCCN(CCCCC)CC(O)c1cc(Cl)ccc1OC` (centres undefined), the GI50 with UACC-62 melanoma is 11.1 µM; with U251 CNS it was 10.7 µM; with LOX IMVI melanoma, 5.23 µM; in the test on SN12C renal, 10.5 µM; with K-562 leukemia, 3.81 µM; with EKVX NSCLC, 6.39 µM. In addition, the GI50 was 0.683 µM in the test on HT29 colon, 11.4 µM with OVCAR-8 ovarian, 14.6 µM in the test on SNB-19 CNS and 10.5 µM with ACHN renal. Further, the TGI came to 25.4 µM in the test on UACC-62 melanoma; 25.5 µM in the test with U251 CNS; 18.4 µM in the test with LOX IMVI melanoma; 28.8 µM in the test on SN12C renal; 20.3 µM in the test with K-562 leukemia; 22.3 µM in the test with EKVX NSCLC. Besides, the TGI with HT29 colon amounted to 12 µM; in the test on OVCAR-8 ovarian, 25.7 µM; in the test with SNB-19 CNS, 50.1 µM; in the test with ACHN renal it was 24.9 µM.

As for `COc1ccc(OC(C(=O)O)C(C)C)c2c1CCCC2=O` (centres undefined), the TGI in the test on UACC-62 melanoma, with U251 CNS, with LOX IMVI melanoma, with SN12C renal, with K-562 leukemia and with EKVX NSCLC was more than 100 µM throughout. Besides, the TGI in the test with HT29 colon, with OVCAR-8 ovarian, in the test with SNB-19 CNS and with ACHN renal was more than 100 µM each time.

Consider `O=[N+]([O-])c1nccn1CC(O)CN1CCCCC1` (centres undefined), for which the TGI in the test on UACC-62 melanoma, in the test with U251 CNS, in the test with LOX IMVI melanoma, with SN12C renal, in the test on K-562 leukemia and in the test on EKVX NSCLC was more than 100 µM throughout. For the same compound, the TGI in the test with HT29 colon, in the test on OVCAR-8 ovarian, in the test with SNB-19 CNS and with ACHN renal was more than 100 µM in each case.

For the compound `Cc1c2c(cc3c1C(=O)C(=O)C1=C3OC[C@@H]1C)C(C)(C)CCC2`, the TGI with UACC-62 melanoma is 25.9 µM; with U251 CNS, 34.4 µM; in the test with LOX IMVI melanoma, 20.5 µM; in the test with SN12C renal, 34.6 µM; in the test with K-562 leukemia it was 34.5 µM; in the test on EKVX NSCLC, 58.7 µM. In addition, the TGI was found to be 32.5 µM in the test with HT29 colon, 52.5 µM in the test on OVCAR-8 ovarian, 49.3 µM in the test with SNB-19 CNS and 38.3 µM in the test on ACHN renal.

In the case of `CCN1CCN(c2cc(C)nc(N(CCCNc3ccnc4cc(Cl)ccc34)Cc3ccc4c(c3)OCO4)n2)CC1`, the GI50 with UACC-62 melanoma is 1.85 µM; in the test on U251 CNS, 2.13 µM; with LOX IMVI melanoma it was 1.89 µM; in the test on SN12C renal, 4.13 µM; with K-562 leukemia it was 1.91 µM; in the test on EKVX NSCLC, 4.56 µM. In addition, the GI50 was 1.95 µM with HT29 colon, 3.19 µM with OVCAR-8 ovarian, 4.16 µM with SNB-19 CNS and 3.16 µM in the test with ACHN renal. Also, the TGI is 3.51 µM with UACC-62 melanoma; 4.73 µM with U251 CNS; 3.7 µM in the test on LOX IMVI melanoma; more than 100 µM in the test with SN12C renal; 7.86 µM in the test on K-562 leukemia; more than 100 µM with EKVX NSCLC. For the same compound, the TGI stood at 5.79 µM in the test with HT29 colon, 14.4 µM in the test with OVCAR-8 ovarian, 52 µM in the test with SNB-19 CNS and 10.6 µM in the test with ACHN renal.

Take `CCCCCCCCOC(=O)c1c(C)[nH]c(/C=C2\N=C(c3ccc[nH]3)C=C2OC)c1C`: the GI50 is 0.0295 µM with UACC-62 melanoma; 0.0258 µM in the test with U251 CNS; less than 0.0134 µM in the test with LOX IMVI melanoma; 0.0601 µM in the test with SN12C renal; 0.0212 µM in the test on K-562 leukemia; 0.12 µM with EKVX NSCLC. Further, the GI50 in the test on HT29 colon is less than 0.0179 µM; with OVCAR-8 ovarian, 0.0459 µM; in the test with SNB-19 CNS, 0.551 µM; with ACHN renal, 0.0322 µM. For the same compound, the TGI with UACC-62 melanoma is 0.0904 µM; in the test with U251 CNS it was 1.65 µM; with LOX IMVI melanoma, less than 0.02 µM; in the test on SN12C renal it was 3.55 µM; with K-562 leukemia, 14.2 µM; in the test with EKVX NSCLC, 9.15 µM. Also, the TGI with HT29 colon is 1.43 µM; in the test with OVCAR-8 ovarian, 13.8 µM; with SNB-19 CNS, more than 46.3 µM; in the test with ACHN renal, 1.77 µM.

Regarding `NS(=O)(=O)c1ccc(N=Nc2c(O)[nH]c3ccc(C(=O)NCc4ccncc4)cc23)cc1`, the GI50 with UACC-62 melanoma, in the test with U251 CNS, with LOX IMVI melanoma, with SN12C renal, in the test with K-562 leukemia and in the test with EKVX NSCLC was more than 25 µM in each case. In addition, the GI50 with HT29 colon is 24.6 µM; in the test on OVCAR-8 ovarian it was more than 25 µM; with SNB-19 CNS it was more than 25 µM; in the test with ACHN renal, more than 25 µM. In addition, the TGI in the test on UACC-62 melanoma, with U251 CNS, in the test with LOX IMVI melanoma, in the test with SN12C renal, in the test with K-562 leukemia and in the test with EKVX NSCLC was more than 25 µM throughout. For the same compound, the TGI in the test with HT29 colon, in the test with OVCAR-8 ovarian, with SNB-19 CNS and in the test with ACHN renal was more than 25 µM throughout.

On to `CCOC(=O)c1c(C)n(Cc2ccc(Cl)cc2Cl)c2c1cc1oc(=O)c(=O)n3cnc2c13`, for which the GI50 in the test on U251 CNS was 14.7 µM; in the test on LOX IMVI melanoma, 14.2 µM; with SN12C renal it was 19 µM; with K-562 leukemia, 5.14 µM; in the test on EKVX NSCLC it was 23.2 µM; with HT29 colon, 11 µM. For the same compound, the GI50 is 7.68 µM in the test on OVCAR-8 ovarian, 17.4 µM with SNB-19 CNS and 14.4 µM with ACHN renal. For the same compound, the TGI with U251 CNS is 27.9 µM; with LOX IMVI melanoma, 27.3 µM; with SN12C renal, 35.2 µM; with K-562 leukemia, 22.6 µM; with EKVX NSCLC it was 43.3 µM; in the test with HT29 colon, 37.8 µM. Also, the TGI turned out to be 25.8 µM in the test on OVCAR-8 ovarian, 32.1 µM in the test on SNB-19 CNS and 27.5 µM in the test with ACHN renal.

Regarding `CCOC(=O)CN(Cn1cncn1)Cn1cncn1`, the TGI with UACC-62 melanoma is more than 100 µM; in the test with U251 CNS, 33.7 µM; with LOX IMVI melanoma it was 43.4 µM; in the test on SN12C renal it was 85.3 µM; with K-562 leukemia it was more than 100 µM; in the test on EKVX NSCLC, more than 100 µM. Moreover, the figures for the TGI in the test with HT29 colon, with OVCAR-8 ovarian and in the test on ACHN renal were more than 100 µM, 58.8 µM and more than 100 µM, respectively.

Regarding `COc1ccc(-c2cc(C(=O)Nc3cc(C(F)(F)F)cc(C(F)(F)F)c3)c3ccccc3n2)cc1`, the TGI in the test on UACC-62 melanoma is more than 100 µM; in the test on U251 CNS it was 15.5 µM; in the test with LOX IMVI melanoma it was 29.1 µM; in the test with SN12C renal, 25.1 µM; in the test with K-562 leukemia, more than 100 µM; in the test with EKVX NSCLC it was 27.4 µM. The TGI with HT29 colon was found to be 36.1 µM; in the test on OVCAR-8 ovarian, 38.9 µM; with ACHN renal, 76.2 µM.
